The source of these data is patent US12162856B2, “β-catenin and B-cell lymphoma 9 (BCL9) inhibitors” (H. LEE MOFFITT CANCER CENTER AND RESEARCH INSTITUTE, INC., priority 2019, dated 2024).

Where a name gives a salt, the structure may show the parent alone. Read-outs that look alike come from different tables or passages of the source.

The target in assay [1] is T1, β-catenin/BCL9 interaction (Homo sapiens, UniProt P35222).
T1 sequence (P35222 1-781): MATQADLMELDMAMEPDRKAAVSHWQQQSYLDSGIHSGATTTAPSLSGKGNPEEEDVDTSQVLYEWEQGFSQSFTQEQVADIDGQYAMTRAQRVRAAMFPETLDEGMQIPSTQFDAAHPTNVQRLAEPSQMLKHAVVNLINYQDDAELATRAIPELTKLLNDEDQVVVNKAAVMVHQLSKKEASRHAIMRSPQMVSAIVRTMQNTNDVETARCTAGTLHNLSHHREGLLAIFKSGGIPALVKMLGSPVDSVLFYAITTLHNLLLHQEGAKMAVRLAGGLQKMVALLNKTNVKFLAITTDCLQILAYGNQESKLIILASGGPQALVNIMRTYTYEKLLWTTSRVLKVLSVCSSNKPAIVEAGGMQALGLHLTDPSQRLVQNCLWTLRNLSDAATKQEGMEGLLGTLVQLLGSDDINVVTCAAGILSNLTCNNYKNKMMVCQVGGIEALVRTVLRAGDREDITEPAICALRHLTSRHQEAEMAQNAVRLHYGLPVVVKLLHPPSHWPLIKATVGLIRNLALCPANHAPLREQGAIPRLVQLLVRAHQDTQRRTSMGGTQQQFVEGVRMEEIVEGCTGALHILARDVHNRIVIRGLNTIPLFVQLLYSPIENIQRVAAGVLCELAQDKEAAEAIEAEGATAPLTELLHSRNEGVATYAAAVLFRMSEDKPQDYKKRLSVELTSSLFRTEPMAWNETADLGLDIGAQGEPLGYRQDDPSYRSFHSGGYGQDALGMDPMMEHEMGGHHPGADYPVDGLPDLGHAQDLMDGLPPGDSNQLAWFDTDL
The settings on record: reported in the literature; cited from earlier work.

For the next assay, the system named is Wnt target genes. The note with it: reported in the literature; cited from earlier work.
A further assay deals with T2, β-catenin/BCL9 PPI (Homo sapiens, UniProt P35222).
T2 construct: Wild-type full-length β-catenin were cloned into a pET-28b vector; made in house; host or cells: Escherichia coli BL21 DE3 (β-catenin); BCL9 peptide chemically synthesized
T2 sequence (P35222 1-781): T1 sequence (P35222 1-781)
The experiment in a line: AlphaScreen competitive inhibition assay of the β-catenin/BCL9 PPI. It is filed as binding. The settings on record: mean ± SD, triplicate, Ki derived from IC50 (Nikolovska-Coleska equation). As to the method: Protein expression and purification. Wild-type full-length β-catenin were cloned into a pET-28b vector carrying a C-terminal 6×histidine (Novagen), and transformed into Escherichia coli BL21 DE3 (Novagen). Cells were cultured in LB medium with 30 μg/mL kanamycin until the OD600 was approximately 0.8, and then protein expression was induced with 400 μM of IPTG at 20° C. overnight. Cells were lysed by sonication. The proteins were purified by Ni-NTA affinity chromatography (30210, Qiagen) and dialyzed against a buffer containing 20 mM of Tris (pH 8.5), 100 mM NaCl, 10% glycerol, and 3 mM DTT. The purity of β-eaten in was greater than 95% as determined by SDS-PAGE gel analysis. Native non-denaturing gel electrophoresis was performed to confirm the homogeneity of the purified proteins. Thermal-shift assay was performed on an iCycler iQ Real Time Detection System (Bio-Rad) to monitor protein stability and detect protein aggregation. Protein unfolding was evaluated through measuring the S15 fluorescence changes of fluorescent dye Sypro Orange when interacting with wild-type or mutant β-catenin proteins. A temperature increment of […] was applied. CD spectra were measured on a J-815 spectropolarimeter (Jasco). All spectra were recorded at room temperature, and the baseline control containing all of the substances except protein. Sample were prepared at a concentration around 1-5 μM in a buffer of 10 mM potassium phosphate and 100 mM potassium fluoride at pH 7.0 to ensure that the transmission of light through the sample was not restricted. All proteins were stable and no aggregation was observed under storage or assay conditions. Proteins were aliquoted and stored at −80° C.
BCL9 peptide synthesis and purification. Human BCL9 (residues 350-375), and […] biotinylated human BCL9 (residues 350-375) were synthesized. All synthesized peptides were purified by HPLC with purity >95%. The structures were validated by LC/MS. The sequences are as follows (Ahx, 6-aminohexanoic acid).
AlphaScreen competitive inhibition assays. For the competitive inhibition assays of the β-catenin/BCL9 PPI, the negative control (equivalent to 0% inhibition) refers to 5.0 nM of biotinylated BCL9, 40 nM of His6-tagged β-catenin, and 10 μg/mL of donor and acceptor beads in a final volume of 25 μL assay buffer, but no tested inhibitor present. The positive control (equivalent to 100% inhibition) refers to 5.0 nM of biotinylated BCL9 and […] of donor and acceptor beads in a final volume of 25 μL assay buffer.
For the β-catenin/BCL9 assay, 5 nM of biotinylated BCL9 and 40 nM of His6-tagged β-catenin were incubated in assay buffer at 4° C. for 30 min. Different concentrations of the tested inhibitor were added and incubated in 20 μL assay buffer at 4° C. for another 1 h. All of the above assay plates were covered and gently mixed on an orbital shaker. The donor and acceptor beads were then added to the plates to a final concentration of 10 μg/mL in 25 μL assay buffer. The mixture was incubated for 1 h at 4° C. before detection. The IC50 value was determined by nonlinear least-square analysis of GraphPad Prism 5.0. The Ki values were derived from the IC50 values using a method reported by Nikolovska-Coleska et al (Nikolovska-Coleska, Z.; Wang, R.; Fang, X.; Pan, H.; Tomita, Y.; Li, P.; Roller, P. P.; Krajewski, K.; Saito, N. G.; Stuckey, J. A.; Wang, S. Development and optimization of a binding assay for the XIAP BIR3 domain using fluorescence polarization. Anal. Biochem. 2004, 332, 261-273.). The assays were conducted under the conditions required by Nikolovska-Coleska et al.'s equation for determining the Ki values. All of the experiments were performed in triplicate. The results were expressed as mean±standard deviation.

For orientation: Ki means a dissociation constant, usually derived from enzyme kinetics or from competition with a known ligand.

As to `CC(C)c1cc2c(c(O)c1O)[C@@]1(C(=O)O)CCCC(C)(C)[C@@H]1CC2` [camosic acid, Carnosic acid], in assay [1], the “disruption of the β-catenin/BCL9 interaction” value is “can disrupt the β-catenin/BCL9 interaction”. Further, in the assay on Wnt target genes, the “suppression of Wnt target gene / β-catenin-dependent transcription” value is reported as “inhibit β-catenin-dependent transcription”.
With `NCCCCC(=O)Nc1cc(F)cc(C(=O)N2CCN(C(=O)c3ccc(O[C@H]4CCNC4)c(C4CCCCC4)c3)CC2)c1` [Compound 2, (S)-5-Amino-N-(3-(4-(3-cyclohexyl-4-(pyrrolidin-3-yloxy)benzoyl)piperazine-1-carbonyl)-5-fluorophenyl) pentanamide ditrifluoroacetate], the inhibition constant (Ki) at β-catenin/BCL9 PPI (experiment 1, read-out: Ki (μM ± SD) experiment 1) was found to be 230 ± 33 µM; on β-catenin/BCL9 PPI (experiment 2, read-out: Ki (μM ± SD) experiment 2) it was 220 ± 26 µM.
For the molecule `CC(=O)Nc1cc(F)cc(C(=O)N2CCN(C(=O)c3ccc(O[C@H]4CCNC4)c(C4CCCCC4)c3)CC2)c1` [Compound 12, (S)—N-(3-(4-(3-Cyclohexyl-4-(pyrrolidin-3-yloxy)benzoyl)piperazine-1-carbonyl)-5-fluorophenyl) acetamide trifluoroacetate], the Ki came to 61 ± 7.5 µM at β-catenin/BCL9 PPI (experiment 3, read-out: Ki (μM ± SD) experiment 3) and 37 ± 3.6 µM on β-catenin/BCL9 PPI (experiment 4, read-out: Ki (μM ± SD) experiment 4).
